In brackets after ≈: the same amount, converted by molar mass. Several values for one entry are separate records, joined by “and”; a condition that tells them apart may be missing. Equal entries are not always repeated. Structures can show the parent of a compound that is named as a salt. Where two headings read alike, the source gives them in different places.
Key:
[1] = biological target: T1, butyrylcholinesterase (BChE) (Homo sapiens, UniProt P06276); test: Butyrylcholinesterase inhibition in vitro; format: biochemical; settings: for IC50: assayed at 100-0.1 µg/mL, mean ± S.D.; for inhibition at 10 µg/mL: read-out: Inhibition (%) BChE
T1 construct: purchased Sigma-Aldrich (Steinheim, Germany)
T1 sequence (P06276 29-602): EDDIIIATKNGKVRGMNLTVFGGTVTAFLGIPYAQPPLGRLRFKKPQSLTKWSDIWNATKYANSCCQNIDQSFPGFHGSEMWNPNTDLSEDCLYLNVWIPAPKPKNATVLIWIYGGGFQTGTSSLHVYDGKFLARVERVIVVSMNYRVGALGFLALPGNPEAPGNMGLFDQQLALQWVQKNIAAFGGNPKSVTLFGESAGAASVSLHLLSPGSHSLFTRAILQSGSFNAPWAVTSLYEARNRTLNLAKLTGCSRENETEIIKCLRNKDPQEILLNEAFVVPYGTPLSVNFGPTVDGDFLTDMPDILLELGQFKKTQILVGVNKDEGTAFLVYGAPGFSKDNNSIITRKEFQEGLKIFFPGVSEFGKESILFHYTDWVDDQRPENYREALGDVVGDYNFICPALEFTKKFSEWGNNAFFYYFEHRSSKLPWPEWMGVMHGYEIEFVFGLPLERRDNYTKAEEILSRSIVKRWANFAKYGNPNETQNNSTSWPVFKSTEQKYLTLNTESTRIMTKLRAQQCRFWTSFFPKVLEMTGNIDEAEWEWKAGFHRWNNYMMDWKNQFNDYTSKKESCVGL
Method: (§1) Details of all biological activity and molecular modeling studies are given as supplementary material. The enzyme activities of the extracts were studied by observing urease, tyrosinase acetyl- and butyryl-cholinesterase inhibition activities ([22]-[25]). The ligands were then applied with partial atomic charges derived by ﬁtting Antechamber obtained by electronic structure calculation module in AMBER and assigned the AM1-BCC charges ([26]-[29]).
(§2) All compounds were assayed in-vitro against AChE and BChE at 100-0.1 µg/mL.

[2] = biological target: T2, acetylcholinesterase (AChE) (Homo sapiens, UniProt P22303); test: biochemical; settings: for inhibition at 10 µg/mL: read-out: Inhibition (%) AChE
T2 construct: purchased Sigma-Aldrich (Steinheim, Germany)
T2 sequence (P22303 32-614, species assumed): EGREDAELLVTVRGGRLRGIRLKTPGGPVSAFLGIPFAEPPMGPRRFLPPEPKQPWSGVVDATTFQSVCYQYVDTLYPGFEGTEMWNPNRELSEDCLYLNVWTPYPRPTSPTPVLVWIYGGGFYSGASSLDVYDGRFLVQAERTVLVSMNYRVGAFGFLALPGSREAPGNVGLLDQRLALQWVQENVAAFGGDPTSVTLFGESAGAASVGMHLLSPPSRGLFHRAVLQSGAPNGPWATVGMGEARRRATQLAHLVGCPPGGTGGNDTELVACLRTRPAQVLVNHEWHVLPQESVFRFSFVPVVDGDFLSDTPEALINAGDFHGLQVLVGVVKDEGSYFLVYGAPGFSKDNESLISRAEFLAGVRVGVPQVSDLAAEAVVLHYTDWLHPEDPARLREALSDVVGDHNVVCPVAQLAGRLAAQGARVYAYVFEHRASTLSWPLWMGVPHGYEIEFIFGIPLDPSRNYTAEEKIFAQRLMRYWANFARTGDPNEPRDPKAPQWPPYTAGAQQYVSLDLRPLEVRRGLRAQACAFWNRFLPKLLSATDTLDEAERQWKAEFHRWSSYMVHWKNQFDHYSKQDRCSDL
Method: as §1, §2

tyrosinase = test: Tyrosinase inhibition in vitro; format: biochemical, mushroom; settings: N.A. = not active; for Inhibition (%) Tyrosinase: 10µg/mL, mean ± S.D. of three measurements; for Equivalent Tyrosinase (µg kojic acid activity/mg compound): mean ± S.D.
Source text: as §1

urease = biological target: T3, urease (Canavalia ensiformis, UniProt P07374); test: biochemical; parameters: species or system Canavalia ensiformis (Jack bean); settings: N.A. = not active; for Inhibition (%) Urease: 10µg/mL; for Inhibition (%) Urease / inhibition at 10 µg/mL: mean ± S.D. of three measurements; for Equivalent Urease (µg thiourea activity/mg compound): mean ± S.D.; for inhibition at 10 µg/mL: read-out: Inhibition (%) Urease, 10µg/mL
T3 construct: purchased Sigma (Germany) Type III, powder, 15,000-50,000 units/g solid
T3 sequence (P07374 whole entry, looked up): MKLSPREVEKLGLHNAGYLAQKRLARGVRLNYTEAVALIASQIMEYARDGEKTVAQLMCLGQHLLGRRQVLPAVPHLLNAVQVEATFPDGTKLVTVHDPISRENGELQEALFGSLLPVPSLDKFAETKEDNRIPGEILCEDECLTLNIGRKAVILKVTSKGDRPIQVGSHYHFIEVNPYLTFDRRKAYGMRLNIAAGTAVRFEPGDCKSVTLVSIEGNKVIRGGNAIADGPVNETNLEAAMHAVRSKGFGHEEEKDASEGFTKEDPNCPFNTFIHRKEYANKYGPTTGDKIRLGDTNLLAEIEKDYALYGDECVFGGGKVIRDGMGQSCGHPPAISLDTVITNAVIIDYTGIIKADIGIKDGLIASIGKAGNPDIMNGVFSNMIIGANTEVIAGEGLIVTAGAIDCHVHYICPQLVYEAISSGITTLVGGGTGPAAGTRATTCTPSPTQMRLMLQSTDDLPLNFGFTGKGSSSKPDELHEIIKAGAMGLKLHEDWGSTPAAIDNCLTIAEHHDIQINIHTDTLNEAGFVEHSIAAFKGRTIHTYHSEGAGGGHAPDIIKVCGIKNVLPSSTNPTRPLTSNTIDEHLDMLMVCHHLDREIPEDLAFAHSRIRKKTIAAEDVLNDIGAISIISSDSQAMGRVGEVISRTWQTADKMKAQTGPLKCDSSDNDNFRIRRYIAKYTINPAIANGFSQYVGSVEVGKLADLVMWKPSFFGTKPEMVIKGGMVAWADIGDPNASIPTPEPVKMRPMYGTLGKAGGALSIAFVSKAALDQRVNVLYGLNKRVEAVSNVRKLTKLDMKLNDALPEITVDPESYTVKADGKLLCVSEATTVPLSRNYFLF
Source text: as §1

BChE [3] = test system: BChE; parameters: method as in Senol et al (2017); settings: ref Senol et al (2017); cited from earlier work
BChE [4] = test system: BChE; parameters: method as in Ramirez et al. ([39]); settings: ref Ramirez et al. ([39]); read-out: IC50 against BChE; cited from earlier work
[5] = 10µg/mL, mean ± S.D. of three measurements, N.A. = not active
[6] = assayed at 100-0.1 µg/mL, mean ± S.D., N.A. = not active, read-out: IC50 AChE (converted)
[7] = read-out: IC50 BChE (converted)

SMILES | IC50 ([1]; IC50 BChE) [µM] | inhibition at 10 µg/mL [1] [%] | inhibition at 10 µg/mL [2, 5] [%] | IC50 [2, 6] [µM] | Inhibition (%) Tyrosinase (tyrosinase) [%] | Equivalent Urease (µg thiourea activity/mg compound) (urease) | inhibition at 10 µg/mL (urease) [%] | IC50 [2] [µM] | further results
O=C(/C=C/c1ccc(O)c(O)c1)O[C@H](Cc1ccc(O)c(O)c1)C(=O)O [Compound 1, Rosmarinic acid] | 35.4 | 42.76 ± 0.32 | 20.2 ± 0.21 | > 278 | 12.11±0.02 |  |  |  | Equivalent Tyrosinase (µg kojic acid activity/mg compound) (tyrosinase): 105.58±0.18 µg kojic acid activity/mg compound
COc1ccc(-c2cc(=O)c3c(O)c(OC)c(OC)cc3o2)cc1 [Compound 2, Salvigenin] |  |  | 22.72 ± 0.14 | > 305 |  |  |  |  | inhibition at 10 µg/mL [1, 5]: 43.13 ± 0.21%; IC50 [1, 7]: 34.9 µM
O=C(/C=C/c1ccc(O)c2c1[C@H](C(=O)O[C@H](Cc1ccc(O)c(O)c1)C(=O)O)[C@@H](c1ccc(O)c(O)c1)O2)O[C@H](Cc1ccc(O)c(O)c1)C(=O)O [Compound 3, Salvianolic acid B] | 14.6 |  | 10.11 ± 0.08 |  |  | 192.26±0.21 µg thiourea activity/mg compou | 49.83 ± 0.27 | > 139 | inhibition at 10 µg/mL [1, 5]: 49.83 ± 0.27%; Inhibition (%) Urease (urease): 45.52±0.68%
O=C(/C=C/c1ccc(O)c(O)c1/C=C/c1ccc(O)c(O)c1)O[C@H](Cc1ccc(O)c(O)c1)C(=O)O [Compound 4, Salvianolic acid A] | 97.7 |  | 38.82 ± 0.12 |  |  |  |  | 46.6 | inhibition at 10 µg/mL [1, 5]: 27.49 ± 0.08%
Cc1coc2c1C(=O)C(=O)c1c-2ccc2c1CCCC2(C)C [Compound 5, Tanshinone IIA] |  | 66.3 ± 1.18 |  | > 340 |  | 16.12±0.01 µg thiourea activity/mg compou | 14.3 ± 0.42 |  | IC50 [1, 7]: 3.8 µM; inhibition at 10 µg/mL [2]: 32.3 ± 0.44%
Cc1cccc2c3c(ccc12)C1=C(C(=O)C3=O)[C@@H](C)CO1 [Compound 6, Dihydrotanshinone I] | 1.8 | 87.19 ± 0.23 |  |  |  |  |  | 5.39 | IC50 value (BChE) (BChE [3]): 1.71 µg/mL (≈ 6.14 µM); inhibition at 10 µg/mL [2]: 64.54 ± 0.36%
Cc1coc2c1C(=O)C(=O)c1c-2ccc2c(C)cccc12 [Compound 7, Tanshinone I] | 100 | 33 ± 0.86 |  |  | 39.82±1.16 | 174.73±0.19 µg thiourea activity/mg compou | 42.4 ± 0.85 | 138 | inhibition at 10 µg/mL [2]: 31.3 ± 0.72%; Equivalent Tyrosinase (µg kojic acid activity/mg compound) (tyrosinase): 372.86±2.47 µg kojic acid activity/mg compound
CC(C)c1cc2c(c(O)c1O)[C@@]1(C(=O)O)CCCC(C)(C)[C@@H]1CC2 [Compound 8, Carnosic Acid] | 12.4 | 58.5 ± 1.18 | 38 ± 0.96 | 95.7 | 5.92±0.06 | 62.12±0.07 µg thiourea activity/mg compou | 22.42 ± 0.15 |  | Equivalent Tyrosinase (µg kojic acid activity/mg compound) (tyrosinase): 45.93±0.71 µg kojic acid activity/mg compound
CC(C)c1cc2c(c(O)c1O)[C@@]13CCCC(C)(C)[C@@H]1C[C@@H]2OC3=O [Compound 9, Carnosol] |  |  | 47.6 ± 23 | 33.7 |  | 26.60±0.03 µg thiourea activity/mg compou | 16.1 ± 0.42 |  | inhibition at 10 µg/mL [1, 5]: 57.99 ± 0.15%; IC50 [1, 7]: 11.9 µM and 12.5 µM; IC50 (BChE [4]): 5.1 µM
C[C@H]1COC2=C1C(=O)C(=O)c1c2ccc2c1CCCC2(C)C [Compound 10, Cryptotanshinone] | 95.9 | 35.16 ± 0.27 |  |  |  | 103.05±0.11 µg thiourea activity/mg compou | 29.7 ± 1.16 | > 337 | inhibition at 10 µg/mL [2]: 17.46 ± 0.11%
O=C(O)C(O)Cc1ccc(O)c(O)c1 (stereo not drawn) [Compound 11, Danshensu Salt] | 122 | 35.37 ± 0.13 |  |  | 6.20±0.08 |  |  |  | Equivalent Tyrosinase (µg kojic acid activity/mg compound) (tyrosinase): 48.67±0.23 µg kojic acid activity/mg compound
COc1ccc2c3c1O[C@H]1C[C@@H](O)C=C[C@@]31CCN(C)C2 [Galanthamine, galanthamine hydrobromide, reference compound] |  | 67.52 ± 0.41 |  |  |  |  |  |  | 
O=c1cc(CO)occ1O [Kojic acid, reference compound] |  |  |  |  | 69.07±0.38 |  |  |  | 
NC(N)=S [Thiourea, thiourea, reference compound] |  |  |  |  |  |  |  |  | Inhibition (%) Urease (urease): 75.14±1.34%
